These results are taken from paper PMC8233208 (The Journal of Biological Chemistry, 2021).

The subject of the test is ZIKV (MR766). The test can be described thus: ZIKV total RNA replication by qRT-PCR in infected A549 cells. Type of test: cell-based, ZIKV African-lineage MR766 strain. The following applies: 10 μM, RNA replication and NS5 assays. Background: In qPCR the cycle at which signal appears reflects the starting amount.

For destruxin A [Compound 12], the “antiviral (anti-ZIKV) activity, comparison among tested compounds” value is reported as “more potent activities”.
